Eleven compounds from ChEMBL document CHEMBL1201862, “PubChem BioAssay data set” (2004) can be followed below.

Assay in all cases: inhibition of tumour cell growth, NCI panel, 48 h
Experiment [1] has as its system SN12C.
Experiment [2] concerns UACC-62.
For experiment [3], the system named is K562.
In experiment [4] the test system is OVCAR-3.
For experiment [5], the system named is KM12.
Experiment [6] has as its system SK-MEL-28.
In experiment [7] the test system is CAKI-1.
Experiment [8] concerns SK-OV-3.
Experiment [9] has as its system SF-268.
For experiment [10], the system named is ACHN.
Experiment [11] has as its system Malme-3M.
The subject of experiment [12] is MOLT-4.
The subject of experiment [13] is HT-29.
Experiment [14] relates to IGROV-1.
Experiment [15] relates to NCI-H23.
The test system of experiment [16] is DLD-1.
Experiment [17] concerns MDA-MB-231.
Experiment [18] concerns BT-549.
Experiment [19] deals with DU-145.
Experiment [20] deals with MDA-MB-435.

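Briefly, cells in 96-well plates were exposed to five compound concentrations for 48 h, and endpoints were estimated by linear interpolation. The concentration for 50% growth inhibition is given as GI50.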 Active and inactive are the calls of the source. Rule as the data show it: active = GI50 up to about 1.1 µM and inactive = higher. Some results are limits rather than exact numbers.

For the compound `Cc1cccc(C)c1NC(=O)/C(=N/NC(N)=S)C(C)C(=O)c1ccc(Cl)cc1` (stereo not drawn), the GI50 in [1], in [2], in [3], in [4], in experiment [5] and in experiment [6] was > 100 µM (inactive) in each case. The GI50 in experiment [7], in [8], in [9], in [10], in experiment [11] and in experiment [12] was > 100 µM (inactive) in each case. Moreover, the GI50 was 75.9 µM (inactive) in experiment [13], > 100 µM (inactive) in experiment [14], > 100 µM (inactive) in experiment [15] and > 100 µM (inactive) in experiment [16].
`COc1ccccc1NC(=O)CC(=O)n1nc(C)c(/N=N/c2ccccc2Cl)c1C`: the GI50 is > 100 µM (inactive) in experiment [1]; > 100 µM (inactive) in [2]; > 90.2 µM (inactive) in experiment [3]; > 100 µM (inactive) in [17]; > 100 µM (inactive) in experiment [4]; > 100 µM (inactive) in experiment [5]. Further, the GI50 was > 100 µM (inactive) in [6]; > 100 µM (inactive) in [7]; 48.3 µM (inactive) in experiment [8]; > 76 µM (inactive) in [9]; > 81.7 µM (inactive) in [18]; > 100 µM (inactive) in [10]. The GI50 was > 100 µM (inactive) in experiment [11]; > 100 µM (inactive) in experiment [19]; 80.2 µM (inactive) in experiment [12]; > 100 µM (inactive) in [13]; > 100 µM (inactive) in [20]; > 100 µM (inactive) in experiment [14]. For the same compound, the GI50 in experiment [15] is > 37.2 µM (inactive); in experiment [16], > 100 µM (inactive).
`CCCCCCCCCCCCCCCCCCN(C)C(COC)COP(=O)([O-])OCC[N+](C)(C)C` (stereo not drawn): the GI50 was 4.23 µM (inactive) in experiment [1]; 5.16 µM (inactive) in experiment [2]; 11.8 µM (inactive) in experiment [3]; 5.73 µM (inactive) in experiment [17]; 7.24 µM (inactive) in experiment [4]; 1.66 µM (inactive) in experiment [5]. Also, the GI50 in experiment [6] is 18.5 µM (inactive); in experiment [7] it was 3.69 µM (inactive); in experiment [8], 11.2 µM (inactive); in experiment [9] it was 3.24 µM (inactive); in experiment [18] it was 9.18 µM (inactive); in experiment [10], 11.9 µM (inactive). Moreover, the GI50 in experiment [11] is 14.9 µM (inactive); in experiment [19], 10.1 µM (inactive); in experiment [12], 1.82 µM (inactive); in experiment [13], 2.94 µM (inactive); in experiment [20], 15.6 µM (inactive); in experiment [14], 1.3 µM (inactive). Also, the GI50 was 8.45 µM (inactive) in [15] and 3.48 µM (inactive) in experiment [16].
Take `NC1=NN(c2ccccc2)C(=O)C1/C(=N\NC(=O)c1cc2ccccc2cc1O)C(=O)Nc1nc([N+](=O)[O-])cs1` (stereo not drawn): the GI50 in [1] is 37 µM (inactive); in experiment [2] it was 19.6 µM (inactive); in [3], 9.64 µM (inactive); in experiment [4], 30.1 µM (inactive); in experiment [5], 30.3 µM (inactive); in [6] it was 42.7 µM (inactive). The GI50 in experiment [7] was > 25.6 µM (inactive); in experiment [8], 55.7 µM (inactive); in [9], 16.7 µM (inactive); in experiment [10], 34.4 µM (inactive); in experiment [11], > 65 µM (inactive); in [12], 3.6 µM (inactive). Further, the GI50 in [13] is 32.7 µM (inactive); in experiment [14], 19.1 µM (inactive); in experiment [15], 18.4 µM (inactive); in [16], 31.5 µM (inactive).
On to `CC(C)N(C(=O)C12C3C4C5C3C1(C(=O)N(C(C)C)C(C)C)C5C42)C(C)C` (stereo not drawn), for which the GI50 in experiment [1] is > 100 µM (inactive); in [2], > 100 µM (inactive); in experiment [3] it was > 39.2 µM (inactive); in experiment [4], > 100 µM (inactive); in experiment [5] it was > 100 µM (inactive); in experiment [6], > 100 µM (inactive). In addition, the GI50 in experiment [7] is > 100 µM (inactive); in experiment [8], > 100 µM (inactive); in experiment [9] it was > 100 µM (inactive); in experiment [10] it was > 100 µM (inactive); in experiment [11], > 100 µM (inactive); in experiment [12] it was 68.9 µM (inactive). The GI50 in experiment [13] was > 100 µM (inactive); in [14], > 100 µM (inactive); in experiment [15], > 100 µM (inactive); in experiment [16], > 45.3 µM (inactive).
For the compound `N#C/C(=C\c1cccc(Cl)c1Cl)c1ccccc1`, the GI50 in [1] was 49.1 µM (inactive); in experiment [2] it was 58.3 µM (inactive); in experiment [3], > 72.4 µM (inactive); in [4] it was 46.9 µM (inactive); in experiment [5], > 82.4 µM (inactive); in experiment [6], > 100 µM (inactive). For the same compound, the GI50 was 40.1 µM (inactive) in experiment [7]; 45.7 µM (inactive) in experiment [8]; 58.1 µM (inactive) in [9]; 44.9 µM (inactive) in [10]; > 48.2 µM (inactive) in experiment [11]; > 100 µM (inactive) in experiment [12]. The GI50 was > 89.5 µM (inactive) in experiment [13], 33.7 µM (inactive) in [14], 40.8 µM (inactive) in experiment [15] and > 72.8 µM (inactive) in [16].
In the case of `CC(=O)OC1CC2C(C)(C)C(=O)C=C[C@]2(C)C2CCC3(C)C(c4ccoc4)[C@@H](O)[C@H]4O[C@]43[C@]12C` (stereo partly drawn), the GI50 in [1] is 18.6 µM (inactive); in experiment [2], 16.2 µM (inactive); in experiment [3] it was 16.4 µM (inactive); in [4] it was 17.7 µM (inactive); in experiment [5], 19.2 µM (inactive); in experiment [6] it was 23.7 µM (inactive). The GI50 is 22 µM (inactive) in experiment [7]; 20.7 µM (inactive) in experiment [8]; 24.5 µM (inactive) in experiment [9]; 21.8 µM (inactive) in experiment [10]; 24.2 µM (inactive) in [11]; 21.7 µM (inactive) in [12]. The GI50 was 21.7 µM (inactive) in experiment [13], 24 µM (inactive) in [14], 18.1 µM (inactive) in experiment [15] and 20.4 µM (inactive) in experiment [16].
For the compound `N/N=C1\C(=O)N(C2CCCCC2)C(=O)C1C(=O)NC1CCCCC1` (stereo not drawn), the GI50 was 31.6 µM (inactive) in [1]; > 100 µM (inactive) in [2]; > 100 µM (inactive) in [3]; 21 µM (inactive) in [4]; > 100 µM (inactive) in experiment [5]; 81.8 µM (inactive) in [6]. Moreover, the GI50 in experiment [7] was > 100 µM (inactive); in [8], 47.5 µM (inactive); in experiment [9], > 100 µM (inactive); in experiment [10], > 100 µM (inactive); in experiment [11], > 100 µM (inactive); in [12], > 100 µM (inactive). Further, the GI50 in experiment [13], in [14], in [15] and in experiment [16] was > 100 µM (inactive) in each case.
For the compound `CCOC(=O)C1(C/C=C(/C)Cl)CCCC1=O` (stereo not drawn), the GI50 in experiment [1], in experiment [2], in experiment [3], in experiment [4], in experiment [5] and in [6] was > 100 µM (inactive) each time. Further, the GI50 in experiment [7], in experiment [8], in experiment [9], in experiment [10], in experiment [11] and in experiment [12] was > 100 µM (inactive) in each case. For the same compound, the GI50 in [13] was > 100 µM (inactive); in [14], > 100 µM (inactive); in experiment [15] it was > 100 µM (inactive); in experiment [16], 71.3 µM (inactive).
In the case of `COC(=O)C(CCS(=O)(=O)CC(=O)C(=O)Nc1cccc(C(C)=O)c1)C(=O)OC`, the GI50 in [1] was > 100 µM (inactive); in [2], > 100 µM (inactive); in experiment [3], > 61 µM (inactive); in experiment [4] it was > 100 µM (inactive); in experiment [5], > 100 µM (inactive); in [6], > 91.4 µM (inactive). The GI50 in [7] was > 100 µM (inactive); in [8], > 100 µM (inactive); in experiment [9] it was 0.586 µM (active); in [10] it was > 100 µM (inactive); in [11], > 100 µM (inactive); in experiment [12] it was > 100 µM (inactive). Moreover, the GI50 is > 100 µM (inactive) in experiment [13], > 100 µM (inactive) in experiment [14], > 100 µM (inactive) in experiment [15] and > 56.2 µM (inactive) in experiment [16].
On to `CC(/C=C/C=C\C=C\C=C(/C)C(=O)NC(C)CO)=C\C(C)C(O)/C(C)=C/C(C)CCc1ccccc1` (stereo not drawn), for which the GI50 in [1] was 12.8 µM (inactive); in [2], 8.61 µM (inactive); in experiment [3], 0.364 µM (active); in experiment [17], 14.6 µM (inactive); in [4], 1.4 µM (inactive); in [5], 2.32 µM (inactive). For the same compound, the GI50 in experiment [6] was 12.9 µM (inactive); in [7], 14.2 µM (inactive); in [8], 16.4 µM (inactive); in experiment [9], 13.5 µM (inactive); in experiment [18] it was 15.2 µM (inactive); in experiment [10] it was 0.274 µM (active). Moreover, the GI50 is 6.64 µM (inactive) in [11]; 13.8 µM (inactive) in experiment [19]; 7.46 µM (inactive) in experiment [12]; 11.6 µM (inactive) in [13]; 12.8 µM (inactive) in experiment [20]; 11.1 µM (inactive) in experiment [14]. In addition, the GI50 in experiment [15] was < 0.01 µM (active); in experiment [16] it was 13.7 µM (inactive).
